Laboratory results from ChEMBL document CHEMBL5625206, “Design, synthesis, and evaluation of novel pleuromutilin aryl acrylate derivatives as promising broad-spectrum antibiotics especially for combatting multi-drug resistant gram-negative bacteria” (Eur J Med Chem, 2023).
Values after ≈ are worked out from the molar mass of the structure shown.

Tests used:
Format in all cases: functional
[1] = tested on: Escherichia coli; experiment: Antibacterial activity against Escherichia coli ATCC 25922 assessed as bacterial growth inhibition incubated for 24 hrs by CLSI based broth microdilution method
[2] = tested on: Acinetobacter baumannii; experiment: Antibacterial activity against Acinetobacter baumannii ATCC 19606 assessed as bacterial growth inhibition incubated for 24 hrs by CLSI based broth microdilution method
[3] = tested on: Staphylococcus aureus; experiment: Antibacterial activity against Staphylococcus aureus ATCC 29213 assessed as bacterial growth inhibition incubated for 24 hrs by CLSI based broth microdilution method
[4] = tested on: Staphylococcus aureus; experiment: Antibacterial activity against Staphylococcus aureus ATCC 25923 assessed as bacterial growth inhibition incubated for 24 hrs by CLSI based broth microdilution method
[5] = tested on: Staphylococcus epidermidis; experiment: Antibacterial activity against Staphylococcus epidermidis ATCC 12228 assessed as bacterial growth inhibition incubated for 24 hrs by CLSI based broth microdilution method
[6] = tested on: Staphylococcus aureus; experiment: Antibacterial activity against methicillin-resistant Staphylococcus aureus ATCC 33591 assessed as bacterial growth inhibition incubated for 24 hrs by CLSI based broth microdilution method

## C=C[C@]1(C)C[C@@H](OC(=O)COC(=O)/C=C/c2ccc(F)c(F)c2F)[C@]2(C)[C@H](C)CC[C@]3(CCC(=O)[C@H]32)[C@@H](C)[C@@H]1O
[1]
  MIC: 64 µg/mL (≈ 114 µM)
[2]
  MIC: 128 µg/mL (≈ 228 µM)
[3]
  MIC: 64 µg/mL (≈ 114 µM)
[4]
  MIC: 32 µg/mL (≈ 56.9 µM)
[5]
  MIC: 16 µg/mL (≈ 28.4 µM)
[6]
  MIC: 128 µg/mL (≈ 228 µM)

## C=C[C@]1(C)C[C@@H](OC(=O)COC(=O)/C=C/c2ccc(C(F)(F)F)cc2)[C@]2(C)[C@H](C)CC[C@]3(CCC(=O)[C@H]32)[C@@H](C)[C@@H]1O
[1]
  MIC: 64 µg/mL (≈ 111 µM)
[2]
  MIC: > 128 µg/mL
[3]
  MIC: 16 µg/mL (≈ 27.7 µM)
[4]
  MIC: 16 µg/mL (≈ 27.7 µM)
[5]
  MIC: 8 µg/mL (≈ 13.9 µM)
[6]
  MIC: 128 µg/mL (≈ 222 µM)

## C=C[C@]1(C)C[C@@H](OC(=O)COC(=O)/C=C/c2ccccc2)[C@]2(C)[C@H](C)CC[C@]3(CCC(=O)[C@H]32)[C@@H](C)[C@@H]1O
[1]
  MIC: 128 µg/mL (≈ 252 µM)
[2]
  MIC: > 128 µg/mL
[3]
  MIC: 16 µg/mL (≈ 31.5 µM)
[4]
  MIC: 4 µg/mL (≈ 7.86 µM)
[5]
  MIC: 16 µg/mL (≈ 31.5 µM)
[6]
  MIC: 32 µg/mL (≈ 62.9 µM)

## C=C[C@]1(C)C[C@@H](OC(=O)COC(=O)/C=C/c2cccc(F)c2)[C@]2(C)[C@H](C)CC[C@]3(CCC(=O)[C@H]32)[C@@H](C)[C@@H]1O
[1]
  MIC: > 128 µg/mL
[2]
  MIC: > 128 µg/mL
[3]
  MIC: 32 µg/mL (≈ 60.8 µM)
[4]
  MIC: 16 µg/mL (≈ 30.4 µM)
[5]
  MIC: 32 µg/mL (≈ 60.8 µM)
[6]
  MIC: 64 µg/mL (≈ 122 µM)

## C=C[C@]1(C)C[C@@H](OC(=O)COC(=O)/C=C/c2ccsc2)[C@]2(C)[C@H](C)CC[C@]3(CCC(=O)[C@H]32)[C@@H](C)[C@@H]1O
[1]
  MIC: 32 µg/mL (≈ 62.2 µM)
[2]
  MIC: 32 µg/mL (≈ 62.2 µM)
[3]
  MIC: 8 µg/mL (≈ 15.5 µM)
[4]
  MIC: 32 µg/mL (≈ 62.2 µM)
[5]
  MIC: 16 µg/mL (≈ 31.1 µM)
[6]
  MIC: 64 µg/mL (≈ 124 µM)

## C=C[C@]1(C)C[C@@H](OC(=O)COC(=O)/C=C/c2ccccc2C(F)(F)F)[C@]2(C)[C@H](C)CC[C@]3(CCC(=O)[C@H]32)[C@@H](C)[C@@H]1O
[1]
  MIC: > 128 µg/mL
[2]
  MIC: > 128 µg/mL
[3]
  MIC: 64 µg/mL (≈ 111 µM)
[4]
  MIC: 32 µg/mL (≈ 55.5 µM)
[5]
  MIC: 64 µg/mL (≈ 111 µM)
[6]
  MIC: 128 µg/mL (≈ 222 µM)

## C=C[C@]1(C)C[C@@H](OC(=O)COC(=O)/C=C/c2cccs2)[C@]2(C)[C@H](C)CC[C@]3(CCC(=O)[C@H]32)[C@@H](C)[C@@H]1O
[1]
  MIC: 32 µg/mL (≈ 62.2 µM)
[2]
  MIC: 64 µg/mL (≈ 124 µM)
[3]
  MIC: 16 µg/mL (≈ 31.1 µM)
[4]
  MIC: 32 µg/mL (≈ 62.2 µM)
[5]
  MIC: 16 µg/mL (≈ 31.1 µM)
[6]
  MIC: 64 µg/mL (≈ 124 µM)

## C=C[C@]1(C)C[C@@H](OC(=O)COC(=O)/C=C/c2ccc(OC)c(OC)c2)[C@]2(C)[C@H](C)CC[C@]3(CCC(=O)[C@H]32)[C@@H](C)[C@@H]1O
[1]
  MIC: 64 µg/mL (≈ 113 µM)
[2]
  MIC: > 128 µg/mL
[3]
  MIC: 8 µg/mL (≈ 14.1 µM)
[4]
  MIC: 4 µg/mL (≈ 7.03 µM)
[5]
  MIC: 16 µg/mL (≈ 28.1 µM)
[6]
  MIC: 32 µg/mL (≈ 56.3 µM)

## C=C[C@]1(C)C[C@@H](OC(=O)COC(=O)/C=C/c2ccc(C#N)cc2)[C@]2(C)[C@H](C)CC[C@]3(CCC(=O)[C@H]32)[C@@H](C)[C@@H]1O
[1]
  MIC: > 128 µg/mL
[2]
  MIC: > 128 µg/mL
[3]
  MIC: 64 µg/mL (≈ 120 µM)
[4]
  MIC: 32 µg/mL (≈ 60 µM)
[5]
  MIC: 64 µg/mL (≈ 120 µM)
[6]
  MIC: 64 µg/mL (≈ 120 µM)

## C=C[C@]1(C)C[C@@H](OC(=O)COC(=O)/C=C/c2ccc(C(F)(F)F)cc2F)[C@]2(C)[C@H](C)CC[C@]3(CCC(=O)[C@H]32)[C@@H](C)[C@@H]1O
[1]
  MIC: 128 µg/mL (≈ 215 µM)
[2]
  MIC: > 128 µg/mL
[3]
  MIC: 16 µg/mL (≈ 26.9 µM)
[4]
  MIC: 8 µg/mL (≈ 13.5 µM)
[5]
  MIC: 16 µg/mL (≈ 26.9 µM)
[6]
  MIC: 64 µg/mL (≈ 108 µM)

## C=C[C@]1(C)C[C@@H](OC(=O)COC(=O)/C=C/c2ccc(OC)cc2)[C@]2(C)[C@H](C)CC[C@]3(CCC(=O)[C@H]32)[C@@H](C)[C@@H]1O
[1]
  MIC: 32 µg/mL (≈ 59.4 µM)
[2]
  MIC: > 128 µg/mL
[3]
  MIC: 8 µg/mL (≈ 14.9 µM)
[4]
  MIC: 4 µg/mL (≈ 7.43 µM)
[5]
  MIC: 2 µg/mL (≈ 3.71 µM)
[6]
  MIC: 16 µg/mL (≈ 29.7 µM)

## C=C[C@]1(C)C[C@@H](OC(=O)COC(=O)/C=C/c2ccncc2)[C@]2(C)[C@H](C)CC[C@]3(CCC(=O)[C@H]32)[C@@H](C)[C@@H]1O
[1]
  MIC: 64 µg/mL (≈ 126 µM)
[2]
  MIC: 64 µg/mL (≈ 126 µM)
[3]
  MIC: 16 µg/mL (≈ 31.4 µM)
[4]
  MIC: 8 µg/mL (≈ 15.7 µM)
[5]
  MIC: 4 µg/mL (≈ 7.85 µM)
[6]
  MIC: 32 µg/mL (≈ 62.8 µM)

## C=C[C@]1(C)C[C@@H](OC(=O)COC(=O)/C=C/c2ccco2)[C@]2(C)[C@H](C)CC[C@]3(CCC(=O)[C@H]32)[C@@H](C)[C@@H]1O
[1]
  MIC: 64 µg/mL (≈ 128 µM)
[2]
  MIC: 64 µg/mL (≈ 128 µM)
[3]
  MIC: 8 µg/mL (≈ 16 µM)
[4]
  MIC: 64 µg/mL (≈ 128 µM)
[5]
  MIC: 8 µg/mL (≈ 16 µM)
[6]
  MIC: 32 µg/mL (≈ 64.2 µM)
